{"source": "ChEMBL document CHEMBL1140833", "about": "“Potent heteroarylpiperidine and carboxyphenylpiperidine 1-alkyl-cyclopentane carboxamide CCR2 antagonists” (Bioorg Med Chem Lett, 2008)", "key": {"[1]": {"molecular_target": "C-C chemokine receptor type 2 (Homo sapiens, UniProt P41597)", "sequence (P41597 whole entry)": "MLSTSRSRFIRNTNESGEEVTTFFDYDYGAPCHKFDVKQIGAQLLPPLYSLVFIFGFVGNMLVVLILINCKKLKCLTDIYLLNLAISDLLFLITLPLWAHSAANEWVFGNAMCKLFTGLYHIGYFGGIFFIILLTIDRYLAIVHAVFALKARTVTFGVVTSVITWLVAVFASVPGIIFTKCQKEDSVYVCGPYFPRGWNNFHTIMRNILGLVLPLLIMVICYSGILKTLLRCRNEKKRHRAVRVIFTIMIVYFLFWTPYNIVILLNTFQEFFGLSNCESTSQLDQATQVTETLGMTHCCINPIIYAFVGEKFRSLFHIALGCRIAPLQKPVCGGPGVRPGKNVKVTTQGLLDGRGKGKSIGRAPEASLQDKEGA", "assay": "Displacement of [125I]MCP1 from CCR2 receptor in human monocytes", "format": "cell-based"}, "[2]": {"molecular_target": "Voltage-gated inwardly rectifying potassium channel KCNH2 (Homo sapiens, UniProt Q12809)", "sequence (Q12809 whole entry)": "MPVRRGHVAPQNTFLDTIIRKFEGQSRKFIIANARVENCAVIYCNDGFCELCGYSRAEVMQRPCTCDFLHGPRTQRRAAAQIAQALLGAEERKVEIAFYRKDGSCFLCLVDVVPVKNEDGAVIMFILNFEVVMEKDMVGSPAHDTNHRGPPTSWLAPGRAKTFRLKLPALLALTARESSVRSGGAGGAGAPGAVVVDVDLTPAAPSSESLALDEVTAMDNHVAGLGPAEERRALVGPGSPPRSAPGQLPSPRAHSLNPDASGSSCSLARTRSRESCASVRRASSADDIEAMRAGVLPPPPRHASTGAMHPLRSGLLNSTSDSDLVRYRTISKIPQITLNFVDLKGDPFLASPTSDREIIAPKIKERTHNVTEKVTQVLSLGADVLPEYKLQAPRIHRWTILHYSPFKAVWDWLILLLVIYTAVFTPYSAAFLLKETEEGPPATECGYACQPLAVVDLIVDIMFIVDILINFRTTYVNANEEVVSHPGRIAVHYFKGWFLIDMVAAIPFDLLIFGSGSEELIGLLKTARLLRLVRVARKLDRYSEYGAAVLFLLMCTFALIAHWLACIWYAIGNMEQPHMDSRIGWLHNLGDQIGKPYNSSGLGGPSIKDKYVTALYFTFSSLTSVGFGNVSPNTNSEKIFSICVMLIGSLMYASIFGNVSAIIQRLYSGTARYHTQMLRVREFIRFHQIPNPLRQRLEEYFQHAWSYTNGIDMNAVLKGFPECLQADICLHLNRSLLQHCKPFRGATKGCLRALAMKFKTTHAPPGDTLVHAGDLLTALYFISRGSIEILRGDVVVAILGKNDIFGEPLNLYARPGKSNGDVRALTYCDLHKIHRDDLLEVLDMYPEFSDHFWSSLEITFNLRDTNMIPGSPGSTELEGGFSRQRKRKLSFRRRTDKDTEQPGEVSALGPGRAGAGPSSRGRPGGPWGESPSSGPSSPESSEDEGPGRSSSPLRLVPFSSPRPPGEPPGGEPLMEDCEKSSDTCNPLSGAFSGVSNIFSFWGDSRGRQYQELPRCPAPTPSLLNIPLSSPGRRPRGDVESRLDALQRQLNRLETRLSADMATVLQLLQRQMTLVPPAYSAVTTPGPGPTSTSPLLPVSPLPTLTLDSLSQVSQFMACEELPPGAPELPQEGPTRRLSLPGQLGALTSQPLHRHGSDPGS", "assay": "Displacement of [[…]]MK499 from human ERG expressed in HEK cells", "format": "cell-based, HEK293"}, "[3]": {"assay": "Selectivity for human CCR2 over IKr"}, "[4]": {"molecular_target": "C-C chemokine receptor type 5 (Homo sapiens) (UniProt P51681)", "sequence (P51681 whole entry, looked up)": "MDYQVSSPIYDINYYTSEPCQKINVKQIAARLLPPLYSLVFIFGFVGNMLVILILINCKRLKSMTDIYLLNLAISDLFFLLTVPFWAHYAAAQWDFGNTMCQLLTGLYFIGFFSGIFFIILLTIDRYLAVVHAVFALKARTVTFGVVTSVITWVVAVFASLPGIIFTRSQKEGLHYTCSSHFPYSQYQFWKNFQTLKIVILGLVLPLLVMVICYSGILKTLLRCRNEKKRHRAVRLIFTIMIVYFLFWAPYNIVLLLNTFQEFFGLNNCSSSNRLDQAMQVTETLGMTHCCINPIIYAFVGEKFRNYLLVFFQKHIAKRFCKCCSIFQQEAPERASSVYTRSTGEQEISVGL", "assay": "Inhibition of CCR5 at 1 uM", "parameters": "scale not given: the % may be the effect or the level left"}, "[5]": {"assay": "Oral bioavailability in rat at 3 mg/kg", "format": "ADME, organism-based", "conditions": "in vivo"}, "[6]": {"assay": "Clearance in rat at 3 mg/kg, po", "format": "ADME, organism-based", "parameters": "dose 3 mg/kg, route oral", "conditions": "in vivo"}, "[7]": {"assay": "Half life in rat at 3 mg/kg, po", "format": "ADME, organism-based", "parameters": "dose 3 mg/kg, route oral", "conditions": "in vivo"}}, "data": [{"compound": "CC(C)[C@]1(C(=O)NCc2cc(C(F)(F)F)cc(C(F)(F)F)c2)CC[C@@H](N2CCC(c3cccc(C(=O)O)c3)CC2)C1", "note": "(single isomer, unassigned)", "values": [{"measurement": "IC50", "setting": "[1]", "value": 0.041, "unit": "µM"}, {"measurement": "IC50", "setting": "[2]", "value": 0.6, "unit": "µM"}, {"measurement": "IKr IC50/CCR2 IC50 ratio", "setting": "[3]", "value": 15}]}, {"compound": "CC(C)[C@]1(C(=O)NCc2cc(C(F)(F)F)cc(C(F)(F)F)c2)CC[C@@H](N2CCC(c3cccnc3)CC2)C1", "note": "(relative stereo)", "values": [{"measurement": "IC50", "setting": "[1]", "value": 0.006, "unit": "µM"}]}, {"compound": "CC(C)[C@]1(C(=O)NCc2cc(C(F)(F)F)cc(C(F)(F)F)c2)CC[C@@H](N2CCC(c3ncccn3)CC2)C1", "note": "(single isomer, unassigned)", "values": [{"measurement": "IC50", "setting": "[1]", "value": 0.144, "unit": "µM"}]}, {"compound": "CC(C)[C@]1(C(=O)NCc2cc(C(F)(F)F)cc(C(F)(F)F)c2)CC[C@@H](N2CCC(c3ccnnc3)CC2)C1", "note": "(single isomer, unassigned)", "values": [{"measurement": "IC50", "setting": "[1]", "value": 0.064, "unit": "µM"}]}, {"compound": "CC(C)(O)[C@]1(C(=O)NCc2cc(C(F)(F)F)cc(C(F)(F)F)c2)CC[C@@H](N2CCC(c3ccc(F)cc3)CC2)C1", "values": [{"measurement": "IC50", "setting": "[1]", "value": 0.0013, "unit": "µM"}, {"measurement": "IC50", "setting": "[2]", "value": 0.054, "unit": "µM"}, {"measurement": "Activity", "setting": "[4]", "value": 69, "unit": "%"}, {"measurement": "IKr IC50/CCR2 IC50 ratio", "setting": "[3]", "value": 42}]}, {"compound": "CC(C)[C@]1(C(=O)NCc2cc(C(F)(F)F)cc(C(F)(F)F)c2)CC[C@@H](N2CCC(c3ccncn3)CC2)C1", "note": "(single isomer, unassigned)", "values": [{"measurement": "IC50", "setting": "[1]", "value": 0.044, "unit": "µM"}, {"measurement": "IC50", "setting": "[2]", "value": 0.13, "unit": "µM"}, {"measurement": "IKr IC50/CCR2 IC50 ratio", "setting": "[3]", "value": 3}]}, {"compound": "CC(C)(O)[C@]1(C(=O)NCc2cc(C(F)(F)F)cc(C(F)(F)F)c2)CC[C@@H](N2CCC(c3cncnc3)CC2)C1", "values": [{"measurement": "IC50", "setting": "[1]", "value": 0.006, "unit": "µM"}, {"measurement": "Activity", "setting": "[4]", "value": 3, "unit": "%"}]}, {"compound": "COc1cccc(C2CCN([C@@H]3CC[C@@](C(=O)NCc4cc(C(F)(F)F)cc(C(F)(F)F)c4)(C(C)C)C3)CC2)c1", "note": "(single isomer, unassigned)", "values": [{"measurement": "IC50", "setting": "[1]", "value": 0.006, "unit": "µM"}, {"measurement": "IC50", "setting": "[2]", "value": 0.217, "unit": "µM"}, {"measurement": "IKr IC50/CCR2 IC50 ratio", "setting": "[3]", "value": 36}]}, {"compound": "CC(C)[C@]1(C(=O)NCc2cc(C(F)(F)F)cc(C(F)(F)F)c2)CC[C@@H](N2CCC(c3ccc(F)cc3)CC2)C1", "values": [{"measurement": "IC50", "setting": "[1]", "value": 0.003, "unit": "µM"}, {"measurement": "IC50", "setting": "[2]", "value": 0.016, "unit": "µM"}, {"measurement": "Activity", "setting": "[4]", "value": 69, "unit": "%"}, {"measurement": "IKr IC50/CCR2 IC50 ratio", "setting": "[3]", "value": 5}]}, {"compound": "CC(C)[C@]1(C(=O)NCc2cc(C(F)(F)F)cc(C(F)(F)F)c2)CC[C@@H](N2CCC(c3cccnn3)CC2)C1", "note": "(single isomer, unassigned)", "values": [{"measurement": "IC50", "setting": "[1]", "value": 0.05, "unit": "µM"}]}, {"compound": "CC(C)[C@]1(C(=O)NCc2cc(C(F)(F)F)cc(C(F)(F)F)c2)CC[C@@H](N2CCC(c3cccc(C(=O)O)c3)CC2)C1", "values": [{"measurement": "IC50", "setting": "[1]", "value": 0.062, "unit": "µM"}, {"measurement": "IC50", "setting": "[2]", "value": 2.79, "unit": "µM"}, {"measurement": "IKr IC50/CCR2 IC50 ratio", "setting": "[3]", "value": 45}]}, {"compound": "CC(C)[C@]1(C(=O)NCc2cc(C(F)(F)F)cc(C(F)(F)F)c2)CC[C@@H](N2CCC(c3cccc(O)c3)CC2)C1", "note": "(single isomer, unassigned)", "values": [{"measurement": "IC50", "setting": "[1]", "value": 0.006, "unit": "µM"}, {"measurement": "IC50", "setting": "[2]", "value": 0.067, "unit": "µM"}, {"measurement": "IKr IC50/CCR2 IC50 ratio", "setting": "[3]", "value": 11}]}, {"compound": "CC(C)[C@]1(C(=O)NCc2cc(C(F)(F)F)cc(C(F)(F)F)c2)CC[C@@H](N2CCC(c3cncnc3)CC2)C1", "note": "(relative stereo)", "values": [{"measurement": "IC50", "setting": "[1]", "value": 0.012, "unit": "µM"}, {"measurement": "bioavailability", "setting": "[5]", "value": 33, "unit": "%"}, {"measurement": "CL/F", "setting": "[6]", "value": 7, "unit": "mL/min/kg"}, {"measurement": "half-life", "setting": "[7]", "value": 3.8, "unit": "h"}]}, {"compound": "CC(C)[C@]1(C(=O)NCc2cc(C(F)(F)F)cc(C(F)(F)F)c2)CC[C@@H](N2CCC(c3ccc(Cl)nn3)CC2)C1", "note": "(single isomer, unassigned)", "values": [{"measurement": "IC50", "setting": "[1]", "value": 0.165, "unit": "µM"}]}, {"compound": "CC(C)[C@]1(C(=O)NCc2cc(C(F)(F)F)cc(C(F)(F)F)c2)CC[C@@H](N2CCC(c3cccc(F)c3)CC2)C1", "note": "(single isomer, unassigned)", "values": [{"measurement": "IC50", "setting": "[1]", "value": 0.004, "unit": "µM"}]}, {"compound": "CC(C)[C@]1(C(=O)NCc2cc(C(F)(F)F)cc(C(F)(F)F)c2)CC[C@@H](N2CCC(c3cncnc3)CC2)C1", "note": "[listing 1 of 2 here]", "values": [{"measurement": "IC50", "setting": "[1]", "value": 0.005, "unit": "µM"}]}, {"compound": "CC(C)[C@]1(C(=O)NCc2cc(C(F)(F)F)cc(C(F)(F)F)c2)CC[C@@H](N2CCC(c3cncnc3)CC2)C1", "note": "[listing 2 of 2 here]", "values": [{"measurement": "Activity", "setting": "[4]", "value": 3, "unit": "%"}]}]}
